Read-outs that look alike come from different tables or passages of the source.
Key:
[1] = tested on: HeLa cells expressing H3-pS10
VEEV (1CSH3) = assay: microbe, parasite or virus in culture; type: cell-based, Venezuelan equine encephalomyelitis virus; details: for EC50: Venezuelan equine encephalitis virus, HeLa, 20 h
RVFV RNA = type: cell-based, Rift Valley fever virus
[2] = tested on: Golgi complex in HeLa-G cells; assay: cells; type: cell-based, human; details: for EC50: Homo sapiens, 12 h, read-out: GC50 (effective concentration of compound that disrupts 50% of the Golgi complexes)
RVFV strain MP12 [3] = type: cell-based, Rift Valley fever virus
EBOV (Zaire) = assay: microbe, parasite or virus in culture; type: cell-based, Zaire ebolavirus
MARV (Ci67) = assay: microbe, parasite or virus in culture; type: cell-based, Lake Victoria marburgvirus
RVFV = assay: microbe, parasite or virus in culture; type: cell-based; details: Rift Valley fever virus, SAEC, 24 h
RVFV strain MP12 [4] = assay: microbe, parasite or virus in culture; type: cell-based, Rift Valley fever virus; details: for EC50: Rift Valley fever virus, HeLa, 24 h
LASV (Josiah) = assay: microbe, parasite or virus in culture; type: cell-based, Lassa virus; details: for EC50: Mammarenavirus lassaense, HeLa, 24 h
[5] = tested on: tubulin / microtubule organization in HeLa cells; type: cell-based, human
in vitro [6] = details: human
in vitro [7] = details: human; remark: listed apart in the source
[8] = Orthomarburgvirus marburgense, HeLa, 48 h

COc1ccc(CN2C(=O)C(=O)c3cc(C)ccc32)cc1 [D011-2120]
number of cells expressing H3-pS10 (mitotic cells) vs mock-treated [1]: significant increase | concentration above which compound was toxic to the cells ([1]; human): > 25 µM | antiviral activity against VEEV in secondary screening (heat map) (VEEV (1CSH3)): high activity | EC50 (VEEV (1CSH3)): 41.6 µM | viral RNA accumulation in the supernatants (RVFV RNA): 9% | viral RNA accumulation inside the cells (RVFV RNA): 75% | %GNL (lowest % of Golgi number achievable at the compound's highest concentration) [2]: 16.4% | EC50 [2]: 38.2 µM | reduction of N and Gn expression (RVFV strain MP12 [3]): ~10% | reduction of S-Gn (cell surface exposed Gn) expression (RVFV strain MP12 [3]): approximately 90% | time of compound addition PI at which 50% of infection is rescued/recovered (RVFV strain MP12 [3]): > 10 h | antiviral activity against EBOV in secondary screening (heat map) (EBOV (Zaire)): high activity | EC50 (EBOV (Zaire); Zaire ebolavirus, HeLa, 48 h): 54.1 µM | antiviral activity against MARV in secondary screening (heat map) (MARV (Ci67)): high activity | EC50 (MARV (Ci67); [8]): 87.1 µM | EC50 (RVFV): 62.4 µM | antiviral activity against RVFV in secondary screening (heat map) (RVFV strain MP12 [4]): moderate activity | EC50 (RVFV strain MP12 [4]): 61.5 µM | antiviral activity against LASV in secondary screening (heat map) (LASV (Josiah)): moderate activity | EC50 (LASV (Josiah)): 46.8 µM | tubulin ridge value relative to BFA- or mock-treated cells [5]: approximately half | CC50 (in vitro [6]): 98 µM

Cc1ccc(NC(=O)Nc2cc(NC(=O)c3ccc(F)cc3)ccc2N2CCCC2)c(Cl)c1 [F694-1532]
EC50 (VEEV (1CSH3)): 15.2 µM | %GNL (lowest % of Golgi number achievable at the compound's highest concentration) [2]: 19.5% | EC50 [2]: 35.3 µM | reduction of N and Gn expression (RVFV strain MP12 [3]): significantly reduced | time of compound addition PI at which 50% of infection is rescued/recovered (RVFV strain MP12 [3]): 8 h | EC50 (EBOV (Zaire); Zaire ebolavirus, HeLa, 48 h): 118 µM | EC50 (MARV (Ci67); [8]): 143 µM | EC50 (RVFV): 23.5 µM | EC50 (RVFV strain MP12 [4]): 20 µM | EC50 (LASV (Josiah)): 80.4 µM | CC50 (in vitro [6]): 51.3 µM

NC(=O)c1ncn([C@@H]2O[C@H](CO)[C@@H](O)[C@H]2O)n1 [Ribavirin, ribavirin, reference compound]
EC50 (VEEV (1CSH3)): 75 µM | %GNL (lowest % of Golgi number achievable at the compound's highest concentration) [2]: 87.2% | EC50 (EBOV (Zaire); Zaire ebolavirus, HeLa, 48 h): 60.1 µM | EC50 (MARV (Ci67); [8]): 82.2 µM | EC50 (RVFV): 29.5 µM | EC50 (RVFV strain MP12 [4]): 27.2 µM | EC50 (LASV (Josiah)): 6.8 µM

Cl.N [NH4Cl, reference compound]
RVFV infection inhibition when added 2 h PI (RVFV strain MP12 [3]): not at the later time point | RVFV infection inhibition when added at early time points (−2 h or 0 h) (RVFV strain MP12 [3]): inhibited RVFV infection

COc1ccccc1CNC(=O)C1c2c(n(C)c3ccccc23)SCC(=O)N1c1ccc(OC)c(OC)c1 (centres unmarked) [G202-0362]
effects on cell division in uninfected cells [1]: no observable effects | EC50 (VEEV (1CSH3)): 48.9 µM | toxic effects on the HeLa cells (HeLa cells): no toxic effects | viral RNA accumulation in the supernatants (RVFV RNA): 28% | viral RNA accumulation inside the cells (RVFV RNA): 95% | %GNL (lowest % of Golgi number achievable at the compound's highest concentration) [2]: 61.2% | EC50 [2]: 23.7 µM | reduction of N and Gn expression (RVFV strain MP12 [3]): ~10% | reduction of S-Gn (cell surface exposed Gn) expression (RVFV strain MP12 [3]): approximately 90% | time of compound addition PI at which 50% of infection is rescued/recovered (RVFV strain MP12 [3]): > 10 h | EC50 (EBOV (Zaire)): 16.1 µM | EC50 (EBOV (Zaire); Zaire ebolavirus, HeLa, 48 h): 16 µM | EC50 (MARV (Ci67)): 34.1 µM | EC50 (MARV (Ci67); [8]): 34 µM | EC50 (RVFV): 11.9 µM | EC50 (RVFV strain MP12 [4]): 13.6 µM

CC1(C(=O)NCc2ccccc2)Cn2c(cc3occc32)C(=O)N1Cc1ccc(Cl)cc1 (centres unmarked) [C795-0925]
antiviral activity against VEEV in secondary screening (heat map) (VEEV (1CSH3)): highest activity | EC50 (VEEV (1CSH3)): 10.2 µM | %GNL (lowest % of Golgi number achievable at the compound's highest concentration) [2]: 63.4% | EC50 [2]: 36.9 µM | reduction of N and Gn expression (RVFV strain MP12 [3]): significantly reduced | time of compound addition PI at which 50% of infection is rescued/recovered (RVFV strain MP12 [3]): 9 h | CC50 (in vitro [7]): 56.7 µM | antiviral activity against EBOV in secondary screening (heat map) (EBOV (Zaire)): moderate antiviral activity | EC50 (EBOV (Zaire); Zaire ebolavirus, HeLa, 48 h): 46.6 µM | antiviral activity against MARV in secondary screening (heat map) (MARV (Ci67)): moderate antiviral activity | EC50 (MARV (Ci67); [8]): 57.4 µM | EC50 (RVFV): 12.3 µM | antiviral activity against RVFV in secondary screening (heat map) (RVFV strain MP12 [4]): highest activity | EC50 (RVFV strain MP12 [4]): 14.4 µM | antiviral activity against LASV in secondary screening (heat map) (LASV (Josiah)): moderate antiviral activity | EC50 (LASV (Josiah)): 81.4 µM | CC50 (in vitro [6]): 111 µM

COC(=O)Nc1nc2ccc(C(=O)c3cccs3)cc2[nH]1 [nocodazole, reference compound]
number of cells expressing H3-pS10 (mitotic cells) vs mock-treated [1]: significant increase | tubulin ridge value relative to BFA- or mock-treated cells [5]: approximately half

Reference: paper PMC4140764 (PLoS Neglected Tropical Diseases, 2014)
